In patent US9993482B2, “Pharmaceutical combination comprising a class III receptor tyrosine kinase inhibitor and the alkylating histone-deacetylase inhibitor fusion molecule EDO-S101 together with its use in the treatment of cancer” (priority 2014, dated 2018):
Read-outs that look alike come from different tables or passages of the source.

What was measured:
[1] = system: acute myeloid leukemia cell line MOLM-13; experiment: MOLM-13 cell survival, CellTiter-Glo, single drug testing; format: cell-based; settings: Homo sapiens, MOLM-13, 72 h
Experimental: (§1) The acute myeloid leukemia cell line MOLM-13 (obtained from the ATCC) was cultured in media supplemented with 10% FBS at a temperature of 37° C., 5% CO2 and 95% humidity. Culture media was purchased from GIBCO, USA. The cells were plated out in 96-Well Flat Clear Bottom Black Polystyrene TO-Treated Microplates (Cat#3603, Corning®).
(§2) Equipment used was the EnVision Multi Label Reader, PerkinElmer (USA). CO2 Water Jacketed Incubator, Therma (USA). Reverse microscope, Chongguang XDS-1B, Chongqing Guangdian Corp. (Chongqing, P.R.China).
(§3) The cells were harvested respectively during the logarithmic growth period and counted with a hemocytometer.
(§4) For single drug testing, the cell concentrations were adjusted to 4.44×10^4 cells/ml with the medium supplemented with 10% FBS. 90 μl cell suspensions were added to 96-well plates, such that the final cell density was 4×10^3 cells/well. The appropriate cell density was determined and adjusted according to the results of our first test.
(§5) The next day, 10 μl (10×) of drug solution was prepared and dispensed in each well (triplicate for each drug concentration). After 72 h incubation, 100 μl CellTiter-Glow Reagent was added to each well. The contents were mixed for 2 minutes on an orbital shaker to induce cell lysis. The plate was allowed to incubate at room temperature for 10 minutes to stabilize the luminescent signal. Finally, the luminescence was recorded using an EnVision Multi Label Reader.
(§6) In order to calculate IC50, a dose-responsive curve was fitted using nonlinear regression model with a sigmoidal dose response. The formula of surviving rate is shown below, and the IC50 was automatically produced by GraphPad Prism 5.0. The surviving rate (%)=(LumTest article−LUMMedium control)/(LumNone treated−LUMMedium control)×100%.

[2] = system: acute myeloid leukemia cell line MV-4-11; experiment: MV-4-11 cell survival, CellTiter-Glo, two drug combination testing (CalcuSyn); format: cell-based; settings: MV-4-11, 72 h, combination ratio 1:0.00120494
Experimental: as §1, with “MV-4-11” for “MOLM-13”, “fetal bovine serum (FBS)” for “FBS”, “TC-Treated” for “TO-Treated”
as §2
(§7) The cells were harvested respectively during the logarithmic growth period and counted with a hemocytometer. The cell viability is over 98% by trypan blue exclusion.
(§8) For two drug combination testing, the cell concentrations were adjusted to 5.00×10^4/ml with the medium supplemented with 10% FBS. 80 μl cell suspensions were added to 96-well plates, such that the final cell densities were 4×10^3 cells/well. The appropriate cell density was determined and adjusted according to the results of our first test.
The next day, 10 μl (10×) of each drug solution was prepared and dispense in each well simultaneously (triplicate for each concentration). After 72 h incubation, 100 μL […]-GLO® Reagent was added to each well. The contents were mixed for 2 minutes on an orbital shaker to induce cell lysis. The plate was allowed to incubate at room temperature for 10 minutes to stabilize luminescent signal. Then the luminescence was recorded using EnVision Multi Label Reader.
as §6, with “control)/(LUMNone” for “control)/(LumNone”
(§9) Compound interactions were calculated by multiple drug effect analysis and performed by the median equation principle with CalcuSyn software from the mean affected fraction at each drug ratio concentration of each drug according to the methodology described by Chou and Talalay (Chou et al., Adv. Enzyme Regul., 22, 27-55 (1984)), that calculates a combination index (CI) with the following interpretation: • CI>1: antagonist effect, CI=1: additive effect and CI<1 synergistic effect.
(§10) The CI was calculated from the mean affected fraction at each drug ratio concentration of each drug.

[3] = system: acute myeloid leukemia cell line MV-4-11; experiment: MV-4-11 cell survival, CellTiter-Glo, single drug testing; format: cell-based; settings: Homo sapiens, MV4-11, 72 h
Experimental: Culture media was purchased from GIBCO, USA.
as §2, §3, §4
as §5, with “After 72 h incubation, 100 μl CellTiter-Glow Reagent was added to each well.” left out
In order to calculate IC50, a dose-responsive curve was fitted using nonlinear regression model with a sigmoidal dose response. The formula of surviving rate is shown below, and the IC50 was automatically produced by GraphPad Prism 5.0.

[4] = system: multiple myeloma cell lines; settings: in vitro; cited from earlier work
[5] = system: acute myeloid leukemia cell line MOLM-13; experiment: MOLM-13 cell survival, CellTiter-Glo, two drug combination testing (CalcuSyn); format: cell-based; settings: MOLM-13, 72 h, combination ratio 1:0.00264302
Experimental: as §1, §2, §7, §8
The next day, 10 μl (10×) of each drug solution was prepared and dispense in each well simultaneously (triplicate for each concentration). After 72 h incubation, 100 μl CellTiter-Glo® Reagent was added to each well. The contents were mixed for 2 minutes on an orbital shaker to induce cell lysis. The plate was allowed to incubate at room temperature for 10 minutes to stabilize luminescent signal. Then the luminescence was recorded using EnVision Multi Label Reader.
as §6
as §9, with “Talalay,” for “Talalay (Chou et al., Adv. Enzyme Regul., 22, 27-55 (1984)),”
as §10

Structure (SMILES)	IC50 ([1]; FIG. 3 single drug test using different doses (at 1:2 serial dilutions)) [nM]	IC50 ([1]; FIG. 3 single drug test with cisplatin control) [nM]	DRI values at ED75 [2]	DRI values at ED90 [2]	IC50 [3] [nM]	activity relative to bendamustin (times greater) [4]	DRI values at ED75 [5]	DRI values at ED90 [5]	IC50 ([1]; FIG. 3 single drug test using different doses (at 1:2 serial dilutions), read-out: IC50) [nM]	IC50 ([1]; FIG. 3 single drug test with cisplatin control, read-out: IC50) [nM]	IC50 ([3]; read-out: IC50) [nM]
Cn1c(CCCCCCC(=O)NO)nc2cc(N(CCCl)CCCl)ccc21 [EDO-S101]	1720	708	1.368	1.482	668	35-100	5.925	8.534	–	–	–
CC(C)(C)c1cc(NC(=O)Nc2ccc(-c3cn4c(n3)sc3cc(OCCN5CCOCC5)ccc34)cc2)no1 [quizartinib, reference compound]	–	–	6.146	10.760	–	–	3.215	6.645	4.55	2.11	0.804
